Measured values as given in US20110269825A1, “Modified Thromboxane A2 Receptor Promoter Sequence” (priority 2008, published 2011).

Legend:
Assay type in all cases: cell-based, human
Egr1 = assay: Immunoblot analysis of Egr1 expression in HEL cells; details: PMA 100 nM, 0-48 h
Protocol: The expression of WT1, Sp1, Egr1, NF-E2, GATA-1 and Ets-1 proteins in HEL cells was confirmed by western blot analysis. Briefly, whole cell protein was resolved by SDS-PAGE (10% acrylamide gels) and transferred to polyvinylidene difluoride (PVDF) membrane according to standard methodology. […] For PMA studies, HEL cells were pre-incubated for the indicated amount of time with 100 nM PMA, with 10 μM PD98059, with 100 nM PMA plus 10 μM PD98059 or, as a control, with vehicle [0.1% (v/v) DMSO]. Whole cell protein (60 μg per lane) was resolved by SDS-PAGE (10% acrylamide gels) and transferred to polyvinylidene difluoride (PVDF) membrane according to standard methodology.

TPα mRNA = assay: RT-PCR and Southern blot analysis of TPα mRNA expression in HEL cells; details: PMA 100 nM, 2 to 48 h
Protocol: Total RNA was isolated from HEL 92.1.7 cells (5×10^6 approximately) using TRIzol reagent (Invitrogen Life Technologies). RT-PCR was carried out with DNase 1-treated total RNA using oligonucleotide primers to specifically amplify TPα and glyceraldehyde-3-phosphate dehydrogenase (GAPDH) mRNA sequences, as previously described (Miggin et al., 1998). The following primers were used: […]
Following agarose gel electrophoresis, PCR products were transferred to Biodyne® B positively-charged nylon membrane (PaII) using standard methodology (Sambrook et al., 1989). Southern blot analysis of the RT-PCR products was carried out using oligonucleotide probes (5′ end-labelled with biotin) specific for TPα (Kin 583: 5′[Btn][…] GAAG3′, SEQ ID NO:80) and GAPDH (Kin 584: 5′[Btn][…]3′, SEQ ID NO:81] mRNA sequences and detection was carried out using the Detector™ HRP Chemiluminescent Blotting Kit (KPL), as described by the manufacturer.

[1] = tested on: −8460 to −8006 region of Prm1; assay: ChIP analysis of WT1, Egr1 and Sp1 binding to Prm1 in PMA-treated HEL cells; details: PMA 100 nM for 5, 8 or 16 h
Protocol: Chromatin immunoprecipitation (ChIP) assays were performed essentially as described (Koch et al., 2007). Specifically, HEL cells (1×10^8) were pelleted, washed in ice-cold PBS and resuspended in serum-free RPMI 1640. Formaldehyde-cross linked chromatin was sonicated, as described (Koch et al., 2007), to generate fragments 500 bp to 1000 bp in length. Prior to immunoprecipitation (IP), chromatin was incubated with 60 μg normal rabbit IgG overnight at 4° C. on a rotisserie, after which 250 μl of salmon sperm DNA/protein A agarose beads (Millipore) were added and chromatin was precleared for 3 h at 4° C. with rotation. Thereafter, anti-WT1, anti-NF-E2, anti-Sp1, anti-Egr1, anti-GATA-1, anti-Ets-1 ([…]), normal rabbit IgG (10 μg), or a “no antibody” control were used for immunoprecipitation. Following elution, cross-links were reversed by incubation at 65° C. overnight followed by protease digestion with proteinase K (Sigma; 9 μl of 10 mg/ml) at 45° C. for 7 h. After precipitation, samples were resuspended in 50 μl dH2O. PCR analysis was carried out using 2-3 μl of ChIP sample as template or, as a positive control, with an equivalent volume of a 1:20 dilution of the input chromatin DNA. The identities of the primers used for the ChIP PCR reactions, as well as their sequences and corresponding nucleotides within Prm1 are listed below. […]

Sp1 = assay: Immunoblot analysis of Sp1 expression in HEL cells; details: PMA 100 nM over 48 h
Protocol: The expression of WT1, Sp1, Egr1, NF-E2, GATA-1 and Ets-1 proteins in HEL cells was confirmed by western blot analysis. Briefly, whole cell protein was resolved by SDS-PAGE (10% acrylamide gels) and transferred to polyvinylidene difluoride (PVDF) membrane according to standard methodology. Membranes were screened using anti-WT1, anti-NF-E2, anti-Sp1, anti-Egr1, anti-GATA-1 or anti-Ets-1 sera in 5% non fat dried milk in 1×TBS (0.01 M Tris/HCl, 0.1 M NaCl) for 2 h at room temperature followed by washing and screening using goat anti-rabbit horseradish peroxidase (sc-2204) followed by chemiluminescence detection, as described by the supplier (Roche Applied Science). For PMA studies, HEL cells were pre-incubated for the indicated amount of time with 100 nM PMA, with 10 μM PD98059, with 100 nM PMA plus 10 μM PD98059 or, as a control, with vehicle [0.1% (v/v) DMSO]. Whole cell protein (60 μg per lane) was resolved by SDS-PAGE (10% acrylamide gels) and transferred to polyvinylidene difluoride (PVDF) membrane according to standard methodology. […] Cells were harvested 48 hr post-transfection and aliquots ([…]) were analysed by SDS-PAGE/western blot analysis. As a positive control for hTF expression, […] of a commercial control Tissue-Factor Biomass was also analysed. […]

`CCCCCCCCCCCCCC(=O)O[C@@H]1[C@@H](C)[C@@]2(O)[C@@H](C=C(CO)C[C@]3(O)C(=O)C(C)=C[C@@H]23)[C@@H]2C(C)(C)[C@]12OC(C)=O` [PMA, phorbol 12-myristate 13-acetate] was tested, and the Egr1 protein expression (Egr1) was “significant increase in Egr1 expression from 1 to 16 h”, the “TPα mRNA expression” value (TPα mRNA) was “time-dependent, sustained increase in TPα mRNA expression” and the “Binding of WT1, Egr1 and Sp1 to Prm1 chromatin” value [1] was “substantial changes in the pattern of binding of these factors to distal upstream GC-enriched elements”. For the same compound, the Sp1 protein expression (Sp1) was “did not result in appreciable changes in the expression of Sp1”.
